Test results taken from patent US11623919B2, “Heterocyclic P2X7 antagonists” (AXXAM S.P.A., priority 2017, dated 2023).

Legend:
Experiment in all cases: Screen Quest Fluo-8 No Wash Calcium Assay (Bz-ATP evoked Ca2+ influx, FLIPR)
Type in all cases: cell-based
P2X7 receptor [1] = molecular target: T1, P2X7 receptor (Rattus norvegicus, UniProt Q64663); conditions: rP2X7; HEK-293 cells stably transfected with P2X7 receptor, Bz-ATP at EC80, Fluo-8 NW; potency ranges A-D
T1 construct: rP2X7 (IC50; nM); other: rP2X7; HEK-293 cells stably transfected with P2X7 receptor, Bz-ATP at EC80, Fluo-8 NW; potency
T1 sequence (Q64663 1-595): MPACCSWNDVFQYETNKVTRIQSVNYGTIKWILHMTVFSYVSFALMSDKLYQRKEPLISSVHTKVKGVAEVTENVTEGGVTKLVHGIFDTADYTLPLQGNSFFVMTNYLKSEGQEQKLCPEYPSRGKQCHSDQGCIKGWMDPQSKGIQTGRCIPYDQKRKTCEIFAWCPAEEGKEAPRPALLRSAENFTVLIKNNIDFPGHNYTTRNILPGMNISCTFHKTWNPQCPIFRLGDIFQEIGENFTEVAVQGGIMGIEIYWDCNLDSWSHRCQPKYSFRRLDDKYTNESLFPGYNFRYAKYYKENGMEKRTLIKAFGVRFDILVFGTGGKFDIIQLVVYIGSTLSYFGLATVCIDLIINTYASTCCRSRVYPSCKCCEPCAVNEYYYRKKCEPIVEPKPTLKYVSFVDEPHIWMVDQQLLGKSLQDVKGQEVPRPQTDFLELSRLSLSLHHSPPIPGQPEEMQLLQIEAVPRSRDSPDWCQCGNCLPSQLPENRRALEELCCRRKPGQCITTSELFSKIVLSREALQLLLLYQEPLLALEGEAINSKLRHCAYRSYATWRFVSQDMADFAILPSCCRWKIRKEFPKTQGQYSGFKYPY
Procedure: (§1) Extracellular binding of Bz-ATP to P2X7 receptor opens the channel and allows Ca2+ influx into the cells. […] Once inside the cell, the lipophilic blocking groups of Fluo-8 are cleaved by non-specific cell esterases, resulting in a negatively-charged fluorescent dye that stays inside cells. Its fluorescence increases upon binding to calcium.
(§2) HEK-293 cells stably transfected with P2X7 receptor were seeded overnight in growth medium at 10,000 to 20,000 cell/well in 384-well plate. 24 hours later, the medium was removed and the cells were pre-loaded at RT for 1 hour with 20 μL/w of Fluo-8 NW. Then 10 μL/w of tests compounds and reference antagonist A438079 at 3×-concentration were injected with the […] and the kinetic response over a period of five minutes was monitored. A second injection of 15 μL/w of 3× reference activator (Bz-ATP at EC80) was performed with the […] and the signal of the emitted fluorescence was recorded for additional three minutes. All the experiment was carried out in a Low Divalent Cation Assay Buffer (0.3 mM Ca^2+ and 0 mM Mg^2+). The effect of the test compounds was measured as percent inhibition vs the reference antagonist and IC50 values were calculated accordingly.

P2X7 receptor [2] = molecular target: T2, P2X7 receptor (Mus musculus, UniProt Q9Z1M0); conditions: mP2X7; HEK-293 cells stably transfected with P2X7 receptor, Bz-ATP at EC80, Fluo-8 NW; potency ranges A-D
T2 construct: mP2X7 (IC50; nM); other: mP2X7; HEK-293 cells stably transfected with P2X7 receptor, Bz-ATP at EC80, Fluo-8 NW; potency
T2 sequence (Q9Z1M0 1-595): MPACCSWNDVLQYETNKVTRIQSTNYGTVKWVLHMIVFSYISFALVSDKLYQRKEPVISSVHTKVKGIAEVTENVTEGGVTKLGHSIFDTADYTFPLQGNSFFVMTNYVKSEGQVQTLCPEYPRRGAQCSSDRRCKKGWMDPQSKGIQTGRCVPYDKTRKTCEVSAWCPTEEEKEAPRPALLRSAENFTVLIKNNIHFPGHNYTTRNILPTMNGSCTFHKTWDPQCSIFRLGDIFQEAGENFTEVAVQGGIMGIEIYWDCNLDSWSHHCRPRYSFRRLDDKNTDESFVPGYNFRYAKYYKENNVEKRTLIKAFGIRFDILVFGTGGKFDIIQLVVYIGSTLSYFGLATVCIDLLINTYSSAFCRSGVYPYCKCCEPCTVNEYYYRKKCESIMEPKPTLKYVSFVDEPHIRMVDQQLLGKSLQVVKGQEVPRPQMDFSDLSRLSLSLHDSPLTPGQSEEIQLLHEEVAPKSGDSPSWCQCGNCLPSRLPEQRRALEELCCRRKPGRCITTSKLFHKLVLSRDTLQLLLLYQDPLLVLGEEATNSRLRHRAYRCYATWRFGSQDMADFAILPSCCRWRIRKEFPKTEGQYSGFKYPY
Procedure: as §1, §2

P2X7 receptor [3] = molecular target: T3, P2X7 receptor (Homo sapiens, UniProt Q99572); parameters: hP2X7 (IC50; nM); other: hP2X7; HEK-293 cells stably transfected with P2X7 receptor, Bz-ATP at EC80, Fluo-8 NW; potency; conditions: hP2X7; HEK-293 cells stably transfected with P2X7 receptor, Bz-ATP at EC80, Fluo-8 NW; potency ranges A-D
T3 sequence (Q99572 1-595): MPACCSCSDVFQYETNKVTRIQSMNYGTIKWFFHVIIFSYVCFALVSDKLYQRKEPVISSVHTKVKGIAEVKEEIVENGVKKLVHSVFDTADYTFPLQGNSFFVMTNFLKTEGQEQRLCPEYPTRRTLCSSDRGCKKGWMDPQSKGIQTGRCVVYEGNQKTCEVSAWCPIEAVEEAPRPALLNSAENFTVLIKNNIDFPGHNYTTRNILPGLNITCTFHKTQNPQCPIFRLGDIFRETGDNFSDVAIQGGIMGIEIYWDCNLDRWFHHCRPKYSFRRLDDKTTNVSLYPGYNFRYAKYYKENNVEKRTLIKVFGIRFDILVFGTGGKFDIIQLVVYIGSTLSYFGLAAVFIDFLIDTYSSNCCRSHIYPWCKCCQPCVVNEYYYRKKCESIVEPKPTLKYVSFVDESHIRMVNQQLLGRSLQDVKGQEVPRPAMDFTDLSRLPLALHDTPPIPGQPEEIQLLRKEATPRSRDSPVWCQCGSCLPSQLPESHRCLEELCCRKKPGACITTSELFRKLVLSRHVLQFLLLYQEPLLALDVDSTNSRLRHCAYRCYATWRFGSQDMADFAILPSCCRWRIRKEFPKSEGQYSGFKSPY
Procedure: as §1, §2

| SMILES | IC50 (P2X7 receptor [1]) | IC50 (P2X7 receptor [2]) | IC50 (P2X7 receptor [3]) |
| --- | --- | --- | --- |
| O=c1onc(Cc2c(F)cccc2Cl)n1Cc1ccccc1Cl [Example 22, 3-[(2-chloro-6-fluorophenyl)methyl]-4-[(2-chlorophenyl)methyl]-4,5-dihydro-1,2,4-oxadiazol-5-one] | 1000 to 10000 nM | 1000 to 10000 nM | 1000 to 10000 nM |
| Cc1ncccc1Cn1c(Cc2c(F)cccc2Cl)noc1=O [Example 24, 3-[(2-chloro-6-fluorophenyl)methyl]-4-[(2-methylpyridin-3-yl)methyl]-4,5-dihydro-1,2,4-oxadiazol-5-one] | > 10000 nM | 1000 to 10000 nM | > 10000 nM |
| O=c1onc(Cc2c(F)cccc2Cl)n1Cc1cccc2ncccc12 [Example 30, 3-[(2-chloro-6-fluorophenyl)methyl]-4-(quinolin-5-ylmethyl)-4,5-dihydro-1,2,4-oxadiazol-5-one] | 1000 to 10000 nM | 1000 to 10000 nM | 1000 to 10000 nM |
| Cc1ncsc1Cn1c(Cc2c(F)cccc2Cl)noc1=O [Example 31, 3-[(2-chloro-6-fluorophenyl)methyl]-4-[(4-methyl-1,3-thiazol-5-yl)methyl]-4,5-dihydro-1,2,4-oxadiazol-5-one] | > 10000 nM | > 10000 nM | 1000 to 10000 nM |
| O=c1onc(Cc2c(F)cccc2Cl)n1Cc1ncco1 [Example 32, 3-[(2-chloro-6-fluorophenyl)methyl]-4-(1,3-oxazol-2-ylmethyl)-4,5-dihydro-1,2,4-oxadiazol-5-one] | > 10000 nM | > 10000 nM | > 10000 nM |
| O=c1onc(Cc2c(F)cccc2Cl)n1Cc1cncs1 [Example 33, 3-[(2-chloro-6-fluorophenyl)methyl]-4-(1,3-thiazol-5-ylmethyl)-4,5-dihydro-1,2,4-oxadiazol-5-one] | > 10000 nM | > 10000 nM | > 10000 nM |
| Cc1noc(C)c1Cn1c(Cc2c(F)cccc2Cl)noc1=O [Example 36, 3-[(2-chloro-6-fluorophenyl)methyl]-4-[(dimethyl-1,2-oxazol-4-yl)methyl]-4,5-dihydro-1,2,4-oxadiazol-5-one] | > 10000 nM | > 10000 nM | 1000 to 10000 nM |
| O=c1onc(Cc2c(F)cccc2Cl)n1Cc1ccc(C(F)(F)F)nc1 [Example 37, 3-[(2-chloro-6-fluorophenyl)methyl]-4-{[6-(trifluoromethyl)pyridin-3-yl]methyl}-4,5-dihydro-1,2,4-oxadiazol-5-one] | > 10000 nM | 1000 to 10000 nM | 1000 to 10000 nM |
| O=c1onc(Cc2c(F)cccc2Cl)n1Cc1cncnc1 [Example 38, 3-[(2-chloro-6-fluorophenyl)methyl]-4-(pyrimidin-5-ylmethyl)-4,5-dihydro-1,2,4-oxadiazol-5-one] | > 10000 nM | > 10000 nM | > 10000 nM |
| O=c1onc(Cc2c(F)cccc2Cl)n1Cc1ncccn1 [Example 39, 3-[(2-chloro-6-fluorophenyl)methyl]-4-(pyrimidin-2-ylmethyl)-4,5-dihydro-1,2,4-oxadiazol-5-one] | > 10000 nM | > 10000 nM | > 10000 nM |

Further lines, results first:

| IC50 (P2X7 receptor [1]) | IC50 (P2X7 receptor [2]) | IC50 (P2X7 receptor [3]) | SMILES |
| --- | --- | --- | --- |
| 1000 to 10000 nM | 1000 to 10000 nM | 200 to 1000 nM | O=c1onc(Cc2c(F)cccc2Cl)n1Cc1ccccc1 [Example 21, 4-benzyl-3-[(2-chloro-6-fluorophenyl)methyl]-4,5-dihydro-1,2,4-oxadiazol-5-one] |
| 1000 to 10000 nM | > 10000 nM | 1000 to 10000 nM | O=c1onc(Cc2c(F)cccc2Cl)n1Cc1ccccc1C(F)(F)F [Example 23, 3-[(2-chloro-6-fluorophenyl)methyl]-4-{[2-(trifluoromethyl)phenyl]methyl}-4,5-dihydro-1,2,4-oxadiazol-5-one] |
| 1000 to 10000 nM | 1000 to 10000 nM | 1000 to 10000 nM | Cc1ccccc1Cn1c(Cc2c(F)cccc2Cl)noc1=O [Example 27, 3-[(2-chloro-6-fluorophenyl)methyl]-4-[(2-methylphenyl)methyl]-4,5-dihydro-1,2,4-oxadiazol-5-one] |
| > 10000 nM | 1000 to 10000 nM | 1000 to 10000 nM | COc1ccccc1Cn1c(Cc2c(F)cccc2Cl)noc1=O [Example 28, 3-[(2-chloro-6-fluorophenyl)methyl]-4-[(2-methoxyphenyl)methyl]-4,5-dihydro-1,2,4-oxadiazol-5-one] |
| > 10000 nM | 1000 to 10000 nM | 1000 to 10000 nM | O=c1onc(Cc2c(F)cccc2Cl)n1Cc1cccc2ccccc12 [Example 29, 3-[(2-chloro-6-fluorophenyl)methyl]-4-(naphthalen-1-ylmethyl)-4,5-dihydro-1,2,4-oxadiazol-5-one] |
| > 10000 nM | > 10000 nM | > 10000 nM | O=c1onc(Cc2c(F)cccc2Cl)n1Cc1nccs1 [Example 34, 3-[(2-chloro-6-fluorophenyl)methyl]-4-(1,3-thiazol-2-ylmethyl)-4,5-dihydro-1,2,4-oxadiazol-5-one] |
| 1000 to 10000 nM | 1000 to 10000 nM | 1000 to 10000 nM | O=c1onc(Cc2c(F)cccc2Cl)n1Cn1ccc(C(F)(F)F)n1 [Example 35, 3-[(2-chloro-6-fluorophenyl)methyl]-4-{[3-(trifluoromethyl)-1H-pyrazol-1-yl]methyl}-4,5-dihydro-1,2,4-oxadiazol-5-one] |
| > 10000 nM | > 10000 nM | > 10000 nM | O=c1onc(Cc2c(F)cccc2Cl)n1Cc1cnco1 [Example 40, 3-[(2-chloro-6-fluorophenyl)methyl]-4-(1,3-oxazol-5-ylmethyl)-4,5-dihydro-1,2,4-oxadiazol-5-one] |
| > 10000 nM | > 10000 nM | > 10000 nM | Cc1nnc(Cn2c(Cc3c(F)cccc3Cl)noc2=O)o1 [Example 41, 3-[(2-chloro-6-fluorophenyl)methyl]-4-[(5-methyl-1,3,4-oxadiazol-2-yl)methyl]-4,5-dihydro-1,2,4-oxadiazol-5-one] |
